Laboratory results published in publication PMC4882280 (Journal of clinical pharmacology, 2015).
Read-outs that look alike come from different tables or passages of the source. Values belong to the compound of their own block, whether it stands above or below them.

Key:
[1] = for AUC(0-t): AUC0-8, plasma; for AUC(0-inf): AUC0-∞ (SD); for Cmax: Cmax (SD); for Tmax: Tmax (SD); for Plasma concentrations at 24 and 72 hours after exemestane administration: lower limit of quantitation 0.2 (exemestane) and 0.1 ng/ml (17-hydroexemestane)
[2] = postmenopausal volunteers, single oral 25 mg dose; cited from earlier work
[3] = single oral 25 mg exemestane; for concentration at 24 h: female, human, urine, po, 25 mg, C24 hr (SD), 24-hr urine concentration
UGT2B17 = conditions: human liver microsomes UGT2B17(*2/*2) versus UGT2B17(*1/*1), P=0.023; cited from earlier work
[4] = female, human, plasma, po, 25 mg, with beta-glucuronidase (total), UGT2B17 *1/*1 (n = 8), single oral 25 mg exemestane
[5] = female, human, plasma, po, 25 mg, with beta-glucuronidase (total), UGT2B17 *2/*2 (n = 6), single oral 25 mg exemestane
[6] = female, human, plasma, po, 25 mg, without beta-glucuronidase (free), UGT2B17 *1/*1 (n = 8), single oral 25 mg exemestane
[7] = female, human, plasma, po, 25 mg, without beta-glucuronidase (free), UGT2B17 *2/*2 (n = 6), single oral 25 mg exemestane
[8] = with beta-glucuronidase, UGT2B17 *1/*1 (n = 8)
[9] = with beta-glucuronidase, UGT2B17 *2/*2 (n = 6)
[10] = without beta-glucuronidase, UGT2B17 *1/*1 (n = 8)
[11] = without beta-glucuronidase, UGT2B17 *2/*2 (n = 6)
[12] = plasma, range over subjects, single oral 25 mg exemestane

AUC ([1]; female, human, plasma, po, 25 mg): 9.2 to 40.6 ng·h/mL | AUC(0-t) ([1]; female, human, plasma, po, 25 mg, with beta-glucuronidase (+BG), UGT2B17*1/*1 carriers, single oral 25 mg exemestane): 16.2 ± 3.5 ng·h/mL | AUC(0-t) ([1]; female, human, plasma, po, 25 mg, with beta-glucuronidase (+BG), UGT2B17*2/*2 carriers, single oral 25 mg exemestane): 15.5 ± 4.2 ng·h/mL | AUC(0-inf) [1, 4]: 19.8 ng·h/mL | AUC(0-inf) [1, 5]: 19 ng·h/mL | AUC(0-inf) [1, 6]: 22.7 ng·h/mL | AUC(0-inf) [1, 7]: 19.7 ng·h/mL | Cmax [1, 4]: 4.4 ng/mL | Cmax [1, 5]: 5.2 ng/mL | Cmax [1, 6]: 5.6 ng/mL | Cmax [1, 7]: 5.3 ng/mL | Tmax [1, 4]: 3.1 h | Tmax [1, 5]: 1.9 h | Tmax [1, 6]: 3.1 h | Tmax [1, 7]: 1.7 h | Plasma concentrations at 24 and 72 hours after exemestane administration ([1]; single oral 25 mg exemestane): below the lowest limit of quantification | concentration at 24 h [3, 8]: 1.7 ± 1 ng/mL | concentration at 24 h [3, 9]: 2.1 ± 1.6 ng/mL | concentration at 24 h [3, 10]: 1.9 ng/mL | concentration at 24 h [3, 11]: 2.5 ng/mL | C24 hr (SD), 24-hr urine concentration [3, 8]: 1.7 (1.0) ng/ml | C24 hr (SD), 24-hr urine concentration [3, 9]: 2.1 (1.6) ng/ml
Structure (SMILES): C=C1C[C@@H]2[C@H](CC[C@]3(C)C(=O)CC[C@@H]23)[C@@]2(C)C=CC(=O)C=C12 [Exemestane]
maximal plasma concentrations (Cmax), range in previous studies [2]: 3.0 to 16.1 ng/mL | plasma concentrations over time (AUC), range in previous studies [2]: 25.6 to 98.1 ng·h/mL

Structure (SMILES): C=C1C[C@H]2[C@@H]3CC[C@H](O)[C@@]3(C)CC[C@@H]2[C@@]2(C)C=CC(=O)C=C12 [17-hydroexemestane]
difference in the AUC of conjugated 17-hydroexemestane between high and poor expressers ([1]; UGT2B17 *1/*1 vs *2/*2, plasma): ~8 fold | AUC, range in our pharmacokinetic study [1, 12]: 0.7 to 26.9 ng·h/mL | Cmax, range in our pharmacokinetic study [1, 12]: 0.1 to 2.7 ng/mL | AUC0-8 ([1]; plasma, with beta-glucuronidase (+BG), UGT2B17*1/*1 carriers, single oral 25 mg exemestane): 7.3 ± 2.6 ng·h/mL | Plasma concentrations at 24 and 72 hours after exemestane administration ([1]; single oral 25 mg exemestane): below the lowest limit of quantification | maximal plasma concentrations (Cmax), range in previous studies [2]: 0.22 to 2.44 ng/mL | plasma concentrations over time (AUC), range in previous studies [2]: 2.46 to 20.89 ng·h/mL | C24 hr (SD), 24-hr urine concentration [3, 8]: 2.3 (1.2) ng/ml | C24 hr (SD), 24-hr urine concentration ([3]; with beta-glucuronidase, UGT2B17 *1/*1 (n = 8), listed as 17-HEXE): 2.3 ± 1.2 ng/mL | C24 hr (SD), 24-hr urine concentration [3, 9]: 0.5 (0.3) ng/ml | C24 hr (SD), 24-hr urine concentration ([3]; with beta-glucuronidase, UGT2B17 *2/*2 (n = 6), listed as 17-HEXE): 0.5 ± 0.3 ng/mL | C24 hr (SD), 24-hr urine concentration [3, 10]: 0.4 (0.2) ng/ml | C24 hr (SD), 24-hr urine concentration [3, 11]: 0.4 (0.3) ng/ml | lower intrinsic clearance (Vmax/Km) (UGT2B17): 36 fold
